The values that follow come from BindingDB's records for doi:10.1016/j.bmcl.2005.03.076 (Janssen-Cilag, 2005).

Structures are written as SMILES.

This test deals with Sodium-dependent noradrenaline transporter (Rattus norvegicus). Kind of test: In vitro binding affinity against norepinephrine transporter using [3H]-nisoxetine as radioligand.
The term Ki denotes a measure of affinity in units of concentration, obtained from inhibition or displacement. For `Nc1ccc2on(C[C@@H]3C[C@H]4c5ccccc5Oc5ccc(Br)cc5[C@H]4O3)c2c1` [8-((2S,3aS,12bS)-11-Bromo-2,3,3a,12b-tetrahydro-1,8-dioxa-dibenzo[e,h]azulen-2-ylmethyl)-7-oxa-8-aza-bicyclo[4.2.0]octa-1(6),2,4-trien-3-ylamine], the affinity, expressed as Ki, was 620 nM.

Compound `Brc1ccc2c(c1)[C@H]1O[C@H](Cn3oc4ccc(CN5CCOCC5)cc43)C[C@H]1c1ccccc1O2` [8-((2S,3aS,12bS)-11-Bromo-2,3,3a,12b-tetrahydro-1,8-dioxa-dibenzo[e,h]azulen-2-ylmethyl)-3-morpholin-4-ylmethyl-7-oxa-8-aza-bicyclo[4.2.0]octa-1(6),2,4-triene] had a Ki of 3110 nM.

Take `CN(C)c1ccc2on(C[C@@H]3C[C@H]4c5ccccc5Oc5ccc(Br)cc5[C@H]4O3)c2c1` [[8-((2S,3aS,12bS)-11-Bromo-2,3,3a,12b-tetrahydro-1,8-dioxa-dibenzo[e,h]azulen-2-ylmethyl)-7-oxa-8-aza-bicyclo[4.2.0]octa-1(6),2,4-trien-3-yl]-dimethyl-amine]: the Ki amounted to 2250 nM.
